Columns and labels:
TET2CD = TET2CD (Homo sapiens, UniProt Q6N021)
KDM2A = biological target: T1, KDM2A (Homo sapiens, UniProt Q9Y2K7); details: read-out: Ki (calculated) KDM2A; Cheng-Prussoff from reported IC50; ref 75 (SI ref 4)
T1 sequence (Q9Y2K7 1-1162): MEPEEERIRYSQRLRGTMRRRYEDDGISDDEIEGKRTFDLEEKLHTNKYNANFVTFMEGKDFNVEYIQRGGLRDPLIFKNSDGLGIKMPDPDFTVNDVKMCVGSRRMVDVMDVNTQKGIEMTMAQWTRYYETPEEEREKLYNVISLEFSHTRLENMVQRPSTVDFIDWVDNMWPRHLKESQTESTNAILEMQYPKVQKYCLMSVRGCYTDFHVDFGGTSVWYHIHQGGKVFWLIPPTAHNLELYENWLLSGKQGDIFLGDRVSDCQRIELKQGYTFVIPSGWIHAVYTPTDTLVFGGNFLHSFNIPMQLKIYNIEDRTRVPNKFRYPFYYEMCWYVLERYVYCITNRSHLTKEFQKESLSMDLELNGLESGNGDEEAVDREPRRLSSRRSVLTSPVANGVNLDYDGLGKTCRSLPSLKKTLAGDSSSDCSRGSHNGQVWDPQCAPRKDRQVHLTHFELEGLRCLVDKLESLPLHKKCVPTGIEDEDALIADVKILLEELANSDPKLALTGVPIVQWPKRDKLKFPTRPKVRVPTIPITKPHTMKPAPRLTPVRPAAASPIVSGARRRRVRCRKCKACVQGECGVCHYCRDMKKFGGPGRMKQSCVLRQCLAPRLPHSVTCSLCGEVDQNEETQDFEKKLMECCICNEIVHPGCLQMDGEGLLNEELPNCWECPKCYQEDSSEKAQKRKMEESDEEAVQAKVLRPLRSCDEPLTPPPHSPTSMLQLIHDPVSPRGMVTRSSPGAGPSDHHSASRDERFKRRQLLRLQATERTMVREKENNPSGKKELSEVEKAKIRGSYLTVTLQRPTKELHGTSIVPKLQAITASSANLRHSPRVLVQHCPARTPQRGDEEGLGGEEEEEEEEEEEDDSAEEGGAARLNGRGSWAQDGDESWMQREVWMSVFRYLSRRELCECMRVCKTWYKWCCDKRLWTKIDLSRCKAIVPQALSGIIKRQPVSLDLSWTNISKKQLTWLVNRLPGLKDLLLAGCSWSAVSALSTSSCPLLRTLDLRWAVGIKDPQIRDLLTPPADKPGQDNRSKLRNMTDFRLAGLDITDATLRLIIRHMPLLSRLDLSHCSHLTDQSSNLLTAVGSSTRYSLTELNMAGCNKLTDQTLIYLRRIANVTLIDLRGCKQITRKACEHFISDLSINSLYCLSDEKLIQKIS

KDM6A [1] = biological target: T2, KDM6A (Homo sapiens, UniProt O15550); details: read-out: Ki (calculated) KDM6A; Cheng-Prussoff from reported IC50; ref SI 8
T2 sequence (O15550 whole entry): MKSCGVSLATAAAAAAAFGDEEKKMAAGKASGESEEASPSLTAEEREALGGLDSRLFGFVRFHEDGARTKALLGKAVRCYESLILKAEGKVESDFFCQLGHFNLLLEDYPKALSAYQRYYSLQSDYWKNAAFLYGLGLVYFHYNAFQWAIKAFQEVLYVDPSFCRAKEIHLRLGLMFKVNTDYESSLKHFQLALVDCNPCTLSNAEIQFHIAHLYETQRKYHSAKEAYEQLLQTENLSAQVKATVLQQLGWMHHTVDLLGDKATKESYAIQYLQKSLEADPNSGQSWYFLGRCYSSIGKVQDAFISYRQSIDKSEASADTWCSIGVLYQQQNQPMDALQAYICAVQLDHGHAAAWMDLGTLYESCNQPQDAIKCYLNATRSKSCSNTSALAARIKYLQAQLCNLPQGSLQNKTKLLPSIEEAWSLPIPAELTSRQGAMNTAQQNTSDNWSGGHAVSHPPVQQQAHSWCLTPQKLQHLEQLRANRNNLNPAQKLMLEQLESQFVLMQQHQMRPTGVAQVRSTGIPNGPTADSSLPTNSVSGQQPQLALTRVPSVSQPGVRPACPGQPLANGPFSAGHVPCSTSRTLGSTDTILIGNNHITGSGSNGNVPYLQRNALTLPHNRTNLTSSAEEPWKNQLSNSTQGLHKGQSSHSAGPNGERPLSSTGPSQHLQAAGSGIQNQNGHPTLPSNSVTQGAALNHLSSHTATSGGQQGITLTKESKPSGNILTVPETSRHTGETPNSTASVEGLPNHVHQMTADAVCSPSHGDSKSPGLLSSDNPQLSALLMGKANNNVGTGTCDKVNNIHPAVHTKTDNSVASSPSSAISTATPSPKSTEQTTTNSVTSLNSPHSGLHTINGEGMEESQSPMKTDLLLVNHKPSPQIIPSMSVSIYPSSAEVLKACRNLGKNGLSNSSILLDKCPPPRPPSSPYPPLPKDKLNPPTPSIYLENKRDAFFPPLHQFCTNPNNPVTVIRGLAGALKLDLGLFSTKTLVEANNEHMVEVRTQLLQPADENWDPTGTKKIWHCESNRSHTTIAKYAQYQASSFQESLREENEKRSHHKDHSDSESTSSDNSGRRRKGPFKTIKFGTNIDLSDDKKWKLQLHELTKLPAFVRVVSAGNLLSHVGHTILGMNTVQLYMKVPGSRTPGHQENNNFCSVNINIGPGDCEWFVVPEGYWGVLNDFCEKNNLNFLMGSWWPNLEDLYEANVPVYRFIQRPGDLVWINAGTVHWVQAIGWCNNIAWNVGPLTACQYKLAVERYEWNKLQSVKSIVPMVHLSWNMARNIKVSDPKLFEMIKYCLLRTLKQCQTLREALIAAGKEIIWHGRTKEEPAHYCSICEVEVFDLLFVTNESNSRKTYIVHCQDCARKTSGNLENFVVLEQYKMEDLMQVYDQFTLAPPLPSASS

KDM6B [2] = biological target: T3, KDM6B (Homo sapiens, UniProt O15054); details: read-out: Ki (calculated) KDM6B; Cheng-Prussoff from reported IC50; ref SI 8
T3 sequence (O15054 whole entry): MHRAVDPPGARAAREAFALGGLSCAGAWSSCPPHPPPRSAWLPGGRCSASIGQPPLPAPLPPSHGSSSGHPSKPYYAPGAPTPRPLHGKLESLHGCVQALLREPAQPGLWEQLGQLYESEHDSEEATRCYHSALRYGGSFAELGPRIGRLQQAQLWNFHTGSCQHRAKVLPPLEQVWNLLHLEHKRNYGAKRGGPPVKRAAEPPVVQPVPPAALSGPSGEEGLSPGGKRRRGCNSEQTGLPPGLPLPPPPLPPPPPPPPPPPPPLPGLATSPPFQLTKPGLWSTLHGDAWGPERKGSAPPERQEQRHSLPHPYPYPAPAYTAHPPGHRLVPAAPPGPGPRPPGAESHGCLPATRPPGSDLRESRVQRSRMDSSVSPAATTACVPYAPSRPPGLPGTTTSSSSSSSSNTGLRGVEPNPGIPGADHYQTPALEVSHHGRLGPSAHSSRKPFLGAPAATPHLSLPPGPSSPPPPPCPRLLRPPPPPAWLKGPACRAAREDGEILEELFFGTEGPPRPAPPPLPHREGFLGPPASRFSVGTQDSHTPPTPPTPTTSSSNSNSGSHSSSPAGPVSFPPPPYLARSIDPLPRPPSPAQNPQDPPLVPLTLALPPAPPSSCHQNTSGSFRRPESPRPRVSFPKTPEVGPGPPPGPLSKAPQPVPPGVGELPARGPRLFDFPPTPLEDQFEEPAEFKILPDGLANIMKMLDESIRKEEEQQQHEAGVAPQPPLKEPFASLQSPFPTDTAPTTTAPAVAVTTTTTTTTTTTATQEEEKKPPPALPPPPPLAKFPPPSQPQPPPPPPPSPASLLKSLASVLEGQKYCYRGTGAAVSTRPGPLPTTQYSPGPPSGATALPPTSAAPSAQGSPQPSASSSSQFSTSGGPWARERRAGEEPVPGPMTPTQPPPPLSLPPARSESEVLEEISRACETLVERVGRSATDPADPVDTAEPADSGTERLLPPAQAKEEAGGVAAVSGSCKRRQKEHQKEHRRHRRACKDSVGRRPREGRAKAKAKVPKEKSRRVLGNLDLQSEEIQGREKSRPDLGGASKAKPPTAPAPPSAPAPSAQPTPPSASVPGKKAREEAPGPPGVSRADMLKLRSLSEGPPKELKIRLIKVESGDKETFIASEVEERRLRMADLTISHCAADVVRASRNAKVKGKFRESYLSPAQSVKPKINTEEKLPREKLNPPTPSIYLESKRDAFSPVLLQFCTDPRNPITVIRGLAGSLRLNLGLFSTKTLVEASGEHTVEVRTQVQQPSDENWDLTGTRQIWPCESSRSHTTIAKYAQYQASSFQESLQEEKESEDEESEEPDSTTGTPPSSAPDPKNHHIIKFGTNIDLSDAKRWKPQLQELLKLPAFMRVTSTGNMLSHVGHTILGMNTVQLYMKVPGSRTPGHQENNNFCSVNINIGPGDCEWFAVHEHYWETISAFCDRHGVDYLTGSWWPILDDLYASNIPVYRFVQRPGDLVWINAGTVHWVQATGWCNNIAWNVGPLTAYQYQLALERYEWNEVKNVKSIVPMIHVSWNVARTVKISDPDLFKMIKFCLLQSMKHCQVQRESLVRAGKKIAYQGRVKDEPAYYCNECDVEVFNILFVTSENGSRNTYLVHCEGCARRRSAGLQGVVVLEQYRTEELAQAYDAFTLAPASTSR

PHD1 = details: ref SI 6 (main 76); cited from earlier work
PHD3 = details: ref SI 6 (main 76); cited from earlier work
PHD1, PHD2, PHD3 = details: RCC4/VHLHA, Hep3B, MCF7; western blot; ref SI 4; cited from earlier work
ABH3 = details: U87-MG, U373-MG, HT-1080; western blot; ref SI 11; cited from earlier work
FTO = details: NOMO-1, U937, MA9.3ITD; dot blot and LC-MS/MS; ref SI 12; cited from earlier work
BBOX1 = details: read-out: IC50 BBOX1; [2OG] 40 µM, enzyme 25 nM; ref SI 4 (main 75); cited from earlier work
KDM4B [3] = biological target: T4, KDM4B (Homo sapiens, UniProt O94953); details: read-out: IC50 KDM4B; [2OG] 20 µM; ref SI 8 (main 64); cited from earlier work
T4 sequence (O94953 1-1096): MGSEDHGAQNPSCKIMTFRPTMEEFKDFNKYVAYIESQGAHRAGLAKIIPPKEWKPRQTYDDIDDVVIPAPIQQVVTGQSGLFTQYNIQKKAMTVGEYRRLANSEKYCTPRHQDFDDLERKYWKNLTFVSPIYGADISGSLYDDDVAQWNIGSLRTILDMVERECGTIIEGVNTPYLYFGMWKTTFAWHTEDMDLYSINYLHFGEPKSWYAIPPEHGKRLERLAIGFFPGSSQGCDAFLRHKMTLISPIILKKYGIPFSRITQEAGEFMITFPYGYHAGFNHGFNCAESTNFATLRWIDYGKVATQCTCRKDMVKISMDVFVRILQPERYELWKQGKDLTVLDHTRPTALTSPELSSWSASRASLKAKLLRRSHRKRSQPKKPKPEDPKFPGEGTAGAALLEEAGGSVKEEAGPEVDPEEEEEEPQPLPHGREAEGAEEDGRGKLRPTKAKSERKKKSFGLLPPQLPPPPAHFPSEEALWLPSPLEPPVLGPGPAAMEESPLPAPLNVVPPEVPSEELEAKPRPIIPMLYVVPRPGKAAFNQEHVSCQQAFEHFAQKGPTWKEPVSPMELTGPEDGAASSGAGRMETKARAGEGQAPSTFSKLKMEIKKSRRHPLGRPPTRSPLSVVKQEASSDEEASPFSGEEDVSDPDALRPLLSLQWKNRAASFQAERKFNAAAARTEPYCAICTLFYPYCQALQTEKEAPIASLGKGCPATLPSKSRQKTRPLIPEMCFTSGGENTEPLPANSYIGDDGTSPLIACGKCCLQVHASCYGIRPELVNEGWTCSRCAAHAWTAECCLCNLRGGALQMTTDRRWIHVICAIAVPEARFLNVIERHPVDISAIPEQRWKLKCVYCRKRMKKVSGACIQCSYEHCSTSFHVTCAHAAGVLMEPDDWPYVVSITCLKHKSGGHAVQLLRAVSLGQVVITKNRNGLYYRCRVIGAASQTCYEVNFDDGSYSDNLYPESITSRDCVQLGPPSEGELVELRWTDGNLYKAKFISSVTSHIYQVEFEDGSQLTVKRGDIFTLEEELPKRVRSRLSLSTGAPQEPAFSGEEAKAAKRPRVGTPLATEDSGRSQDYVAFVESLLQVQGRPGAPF

KDM5B [4] = details: read-out: IC50 KDM5B (14CO2 radioactive); [2OG] 40 µM; ref SI 8 (main 64); cited from earlier work
KDM6A [5] = biological target: T2, KDM6A; details: read-out: IC50 KDM6A; [2OG] […]; ref SI 8 (main 64); cited from earlier work
KDM6B [6] = biological target: T3, KDM6B; details: read-out: IC50 KDM6B; [2OG] 200 µM; ref SI 8 (main 64); cited from earlier work
KDM5B [7] = details: cited from earlier work
KDM4B [8] = biological target: T4, KDM4B; assay: biochemical
FIH = details: read-out: IC50 FIH; [2OG] 100 µM, enzyme 1,000 nM; ref SI 4 (main 75); cited from earlier work
TET1CD [9] = biological target: T5, TET1CD (Homo sapiens, UniProt Q8NFU7)
T5 sequence (Q8NFU7 1418-2136): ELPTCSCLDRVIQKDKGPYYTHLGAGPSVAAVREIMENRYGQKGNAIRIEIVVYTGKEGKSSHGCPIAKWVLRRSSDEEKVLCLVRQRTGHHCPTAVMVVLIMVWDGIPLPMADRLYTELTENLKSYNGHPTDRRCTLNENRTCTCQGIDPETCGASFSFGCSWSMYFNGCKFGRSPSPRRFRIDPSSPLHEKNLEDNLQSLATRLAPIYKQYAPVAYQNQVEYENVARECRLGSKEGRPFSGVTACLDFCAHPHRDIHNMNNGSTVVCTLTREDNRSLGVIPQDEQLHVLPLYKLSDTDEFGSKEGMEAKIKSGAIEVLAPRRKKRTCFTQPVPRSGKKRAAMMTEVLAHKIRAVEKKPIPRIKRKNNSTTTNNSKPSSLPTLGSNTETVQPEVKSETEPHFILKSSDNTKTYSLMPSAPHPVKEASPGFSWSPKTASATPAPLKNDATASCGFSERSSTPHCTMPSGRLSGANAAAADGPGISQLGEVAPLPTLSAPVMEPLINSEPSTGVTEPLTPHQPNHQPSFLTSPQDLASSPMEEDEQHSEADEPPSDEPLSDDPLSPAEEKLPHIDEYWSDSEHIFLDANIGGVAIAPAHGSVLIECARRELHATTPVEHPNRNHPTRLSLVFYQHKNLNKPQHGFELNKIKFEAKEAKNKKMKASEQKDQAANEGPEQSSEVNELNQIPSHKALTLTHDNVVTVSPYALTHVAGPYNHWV

in vitro = details: human, Cellular pCC50 TET1CD, nuclear count by DAPI staining, 24 h; named compound dosed
TET1CD [10] = biological target: T5, TET1CD; assay: cell-based; details: U2OS, read-out: % inhibition of TET1 in cells at […]

## O=C(O)CC[C@@H](O)C(=O)O [R-2HG, (2R)-hydroxyglutarate]
TET2CD
  α-value TET2CD: 11 ± 13
KDM2A
  Ki: 74 µM
KDM6A [1]
  Ki: 43 µM
KDM6B [2]
  Ki: 89 µM
PHD1
  Ki: 1150 µM
PHD3
  Ki: 90 µM
PHD1, PHD2, PHD3
  cellular inhibition PHD1–3 (in words): Putative inhibition of PHD
ABH3
  cellular inhibition ABH3 (in words): Inhibition
FTO
  cellular inhibition FTO (in words): Inhibition
BBOX1
  IC50: 13200 µM
KDM4B [3]
  IC50: 150 µM
KDM5B [4]
  IC50: […]
KDM6A [5]
  IC50: 180 µM
KDM6B [6]
  IC50: 350 µM
KDM5B [7]
  cellular inhibition KDM5B at 2.0 mM (in words): No inhibition
KDM4B [8]
  Ki: 53 µM

## O=C(O)CC[C@H](O)C(=O)O [S-2HG, S-2-hydroxyglutarate]
KDM6A [1]
  Ki: 43 µM
KDM6B [2]
  Ki: 191 µM
FIH
  IC50: 189 µM
BBOX1
  IC50: 142 µM
KDM4B [3]
  IC50: 450 µM
KDM6A [5]
  IC50: 180 µM
KDM6B [6]
  IC50: 750 µM
KDM5B [7]; U2OS, 1.0 mM, immunofluorescence, ref SI 10
  cellular inhibition KDM5B at 1.0 mM (in words): No inhibition
KDM4B [8]
  Ki: 158 µM

## CCCCCCCCOC(=O)[C@H](O)CCC(=O)O [octyl-(R)-2HG, R-Octyl-2-hydroxyglutarate]
TET1CD [9]
  EC50: ~1500 µM
TET1CD [9]; U2OS, 24 h with Dox induction, 5hmC IF, named compound dosed, replicates in parentheses
  Cellular pEC50 TET1CD: 2.83 ± 0.09 (3)
In vitro
  CC50 at 24 h: > 2000 µM
TET1CD [10]
  inhibition at 1500 µM: ~50%

— article PMC10983004 (Journal of Medicinal Chemistry, 2024)
